A short description of data set [1]: Measurement of LogP values by HPLC on reversed phase columns (EEC directive 79/831 Annex V.A8). Type of data set: physicochemical. To be noted: method [a]: LC-UV, acidic range, 0.1% formic acid in water and acetonitrile; compounds of formula (I-1), Table 1. As to the method: Calibration was done with straight-chain alkan2-ones (with 3 to 16 carbon atoms) with known LogP values (measurement of LogP values using retention times with linear interpolation between successive alkanones). Lambda-max-values were determined using UV-spectra from 200 nm to 400 nm and the peak values of the chromatographic signals

The next data set relates to Botrytis cinerea. Kind of data set: In vivo preventive test on Botrytis cinerea (grey mould). To be noted: 500 ppm of active ingredient, preventive spray on gherkin or cabbage, evaluated 4 to 5 days after inoculation, read-out: efficacy. In a few lines:
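Young plants of gherkin or cabbage were sprayed with water-diluted compound formulated in DMSO/acetone/Tween 80, with solvent-only controls. Inoculation followed 24 h later by spraying an aqueous spore suspension of Botrytis cinerea onto leaves.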

A further data set has as its system Pyrenophora teres. The data set is described as follows: In vivo preventive test on Pyrenophora teres (net blotch on barley). The settings on record: 240 h, 500 ppm of active ingredient, preventive spray on barley, evaluated 10 days after inoculation, read-out: efficacy. The method in brief: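 Young barley plants sprayed preventively with compound dissolved in DMSO/acetone/Tween 80 and diluted in water; controls received solvent mixture only. Leaves inoculated 24 h later by spraying an aqueous P. teres spore suspension.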

The test system of the next data set is Sphaerotheca fuliginea. The data set is described as follows: In vivo preventive test on Sphaerotheca fuliginea (powdery mildew on cucurbits). To be noted: Podosphaera fuliginea, 192 h; 500 ppm of active ingredient; preventive spray on gherkin; evaluated 8 days after inoculation; read-out: efficacy. The method in brief:
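Preventive spray on young gherkin plants with compound in DMSO/acetone/Tween 80 diluted in water; controls received solvent only. Leaves inoculated 24 h later by spraying an aqueous S. fuliginea spore suspension.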

Data set [2] concerns Colletotrichum lindemuthianum. Kind of data set: In vivo preventive test on Colletotrichum lindemuthianum (leaf spot on bean). To be noted: 168 h, 500 ppm of active ingredient, preventive spray on bean, evaluated 7 days after inoculation, read-out: efficacy. The method in brief:
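Young bean plants were sprayed with compound dissolved in DMSO/acetone/Tween 80 and diluted in water; controls received the solvent mixture alone. Leaves were spray-inoculated with C. lindemuthianum spore suspension 24 h after treatment (preventive).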

For the next data set, the system named is Alternaria alternata. Kind of data set: Alternaria alternata in vitro cell test. Type of data set: cell-based. To be noted: 120 h, 20 ppm of active ingredient, liquid culture, 5 days incubation, read-out: efficacy (inhibition of fungal growth). The method in brief: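 A. alternata spores in glucose–peptone–yeast extract liquid medium were exposed to DMSO-solubilized compounds. Mycelial growth was measured spectrophotometrically after 5 days. Inhibition was calculated from absorbance relative to compound-free controls.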

The subject of a further data set is Fusarium culmorum. Kind of data set: Fusarium culmorum in vitro cell test. Type of data set: cell-based. The settings on record: 96 h, 20 ppm of active ingredient, liquid culture, 4 days incubation, read-out: efficacy (inhibition of fungal growth). In a few lines:
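Spores were exposed to compounds in glucose/peptone/yeast-extract liquid medium, final DMSO ≤1%. After 4 days, mycelium growth was read by absorbance. Inhibition was derived relative to control wells without fungicide.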

Another data set relates to Pyricularia Oryzae. Kind of data set: microbe, parasite or virus in culture. The data set is classed as cell-based. The settings on record: 120 h, read-out: efficacy (inhibition of fungal growth).
Data set [3] relates to Colletotrichum lindemuthianum. The data set is described as follows: Colletotrichum lindemuthianum in vitro cell test. The data set is classed as cell-based. The settings on record: 144 h, 20 ppm of active ingredient, liquid culture, 6 days incubation, read-out: efficacy (inhibition of fungal growth). The method in brief: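 Liquid-culture assay: C. lindemuthianum spores in glucose/peptone/yeast extract medium exposed to DMSO-solubilized compound, 6 days incubation. Inhibition of germination and mycelial growth derived from absorbance versus fungicide-free control wells.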

Another data set relates to Septoria tritici. Kind of data set: Septoria tritici in vitro cell test. Type of data set: cell-based. To be noted: Zymoseptoria tritici, 168 h; 20 ppm of active ingredient; liquid culture, 7 days incubation; read-out: efficacy (inhibition of fungal growth). The method in brief:
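Liquid culture of S. tritici spore suspension in defined mineral/sucrose medium with compounds added from DMSO solutions; measures inhibition of spore germination and mycelial growth. Growth inhibition derived from absorbance relative to untreated control wells.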

The test system of another data set is Alternaria brassicae. Kind of data set: In vivo preventive test on Alternaria brassicae (leaf spot on radish or cabbage). To be noted: 144 h, 500 ppm of active ingredient, preventive spray on radish or cabbage, evaluated 6 days after inoculation, read-out: efficacy. In a few lines: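 Young radish or cabbage plants sprayed with compound dissolved in DMSO/acetone/Tween 80 and diluted in water; controls received solvent only. Leaves inoculated 24 h later by spraying an aqueous Alternaria brassicae spore suspension.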

From US12543738B2 (Bayer Aktiengesellschaft, priority 2020, dated 2026) come the findings set out here.

A word on the chromatographic logP: it is lipophilicity estimated from chromatographic retention. In general, inhibition refers to the drop in the measured response relative to a control, in per cent. In turn, `Cc1cc(C2=NOCC(Cc3ccc(Cl)cc3Cl)N2)c(Oc2cccc(C)c2F)nn1` (racemic) [Compound I-007, (5RS)-5-(2,4-dichlorobenzyl)-3-[3-(2-fluoro-3-methylphenoxy)-6-methylpyridazin-4-yl]-5,6-dihydro-4H-1,2,4-oxadiazine] showed a chromatographic logP in data set [1] of 3.91. The pest or weed control at 500 ppm (with Botrytis cinerea; with Pyrenophora teres; in the data set with Sphaerotheca fuliginea; in [2]; with Alternaria brassicae) was 90 to 100% each time. Besides, the inhibition at 20 ppm (with Alternaria alternata; with Fusarium culmorum; in the data set with Pyricularia Oryzae; in [3]; in the data set with Septoria tritici) was 90 to 100% in each case.
`Cc1ccc(CC2CON=C(c3cc(C)nnc3Oc3cccc(Cl)c3)N2)c(Cl)c1` (racemic) [Compound I-004, (5RS)-5-(2-chloro-4-methylbenzyl)-3-[3-(3-chlorophenoxy)-6-methylpyridazin-4-yl]-5,6-dihydro-4H-1,2,4-oxadiazine] came in with a chromatographic logP in data set [1] of 3.81. Further, the pest or weed control at 500 ppm (with Botrytis cinerea; in the data set on Pyrenophora teres; in the data set with Sphaerotheca fuliginea; in data set [2]; in the data set on Alternaria brassicae) was 90 to 100% throughout. Also, the inhibition at 20 ppm (in the data set with Alternaria alternata; in the data set on Fusarium culmorum; in the data set with Pyricularia Oryzae; in data set [3]; in the data set with Septoria tritici) was 90 to 100% throughout.
